Data from US20190315806A1, “POLYMYXIN DERIVATIVE, PREPARATION METHOD AND APPLICATION THEREOF” (priority 2016, published 2019).
≈ marks a conversion by molar mass, not a printed value. Where a SMILES comes first, the peptide text is derived from it. Bridges are numbered along the chain shown (N, C = ends). [ ]: non-standard residue; d: D form. The star is where a group is joined. dPhe(4-CN) = N#Cc1ccc(C[C@@H](N)C(=O)O)cc1; dPhe(4-NH2) = Nc1ccc(C[C@@H](N)C(=O)O)cc1; Heptanoyl(6-Me) = CC(C)CCCCC(=O)*; X2 = CC[C@H](C)CCCCC(=O)*; dDab = NCC[C@@H](N)C(=O)O; Octanoyl = CCCCCCCC(=O)*; Dab = NCC[C@H](N)C(=O)O; X1 = CCCCCC(=O)CC(=O)*; X3 = CCCCC(=O)CC(=O)*

Tests used:
Assay type in all cases: cell-based
[1] = tested on: Klebsiella pneumoniae ATCC BAA-2146 (NDM-1); test: Antibacterial activity, MIC by dish double dilution method; details: ATCC BAA-2146
Outline: (§1)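 Twofold agar-dilution MIC (CLSI), 0.03–128 μg/mL final; 10^4 CFU/dot spotted; 35° C., 18–24 h; no-growth endpoint.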

[2] = tested on: Escherichia coli ATCC 25922; details: ATCC 25922
Outline: as §1

[3] = tested on: Staphylococcus epidermidis ATCC 12228; details: ATCC 12228
Outline: as §1

[4] = tested on: Acinetobacter baumannii ATCC 19606; details: ATCC 19606
Outline: as §1

[5] = tested on: Pseudomonas aeruginosa ATCC 27853; details: ATCC 27853
Outline: as §1

[6] = Nephrotoxicity test, renal cytotoxicity by MTT method; details: African green monkey
Procedure: African green monkey kidney cells (Vero cells) were cultured in MEM medium (Hyclone), 10% fetal calf serum (Invitrogen) was added before use, cultured at 37° C. under 5% CO2.
Experiment was carried out using MTT method. After digestion, cells in logarithmic growth phase were counted, then the cells were inoculated in a 96-well culture plate. After incubation for 24 h to be adherent, cells were treated with a concentration gradient of a compound of the invention (e.g., a compound prepared in the Embodiments) and the controls. After 72 h, the culture solution was removed, 100 uL of MTT reagent at a concentration of 0.5 mg/ml was added, the medium was removed after incubating for 3 hours in a 37° C. incubator. Add 150 μL DMSO solvent to each well, mix for 3 min, after which the absorbance at 570 nm (A) was measured with a microplate reader.
Cell viability %=(Adosed cell−Abackground)/(Acontrol cell−Abackground)×100%. The average value of 3 parallel wells was taken for each detection point, and the inhibition curve was drawn to calculate the IC50 value.
The African green monkey kidney cells (Vero cells) used in the experiment were from the Cell Resource Center of the Institute of Basic Medicine, Chinese Academy of Medical Sciences.

Structure (SMILES)	MIC K. pneumoniae ATCC BAA-2146 (NDM-1) [1] [µg/mL]	MIC E. coli ATCC 25922 [2] [µg/mL]	MIC S. epidermidis ATCC 12228 [3] [µg/mL]	MIC A. baumannii ATCC 19606 [4] [µg/mL]	MIC P. aeruginosa ATCC 27853 [5] [µg/mL]	IC50 at 72 h [6] [µg/mL]
CCCCC(=O)CC(=O)N[C@@H](CCN)C(=O)N[C@H](C(=O)N[C@@H](CCN)C(=O)N[C@H]1CCNC(=O)[C@H]([C@@H](C)O)NC(=O)[C@H](CCN)NC(=O)[C@H](CCN)NC(=O)[C@H](CC(C)C)NC(=O)[C@@H](Cc2ccccc2)NC(=O)[C@H](CCN)NC1=O)[C@@H](C)O [Compound 4, 3-oxoheptanoyl-Dab-Thr-Dab-ring(4-10)[Dab-Dab-D-Phe-Lue-Dab-Dab-Thr]] (X3-[Dab]T[Dab][Dab][Dab][dF]L[Dab][Dab]T; lactam 4-C)	2 (≈ 1.68 µM)	0.5 (≈ 0.42 µM)	128 (≈ 108 µM)	2 (≈ 1.68 µM)	2 (≈ 1.68 µM)	110 ± 9.08 (≈ 92.2 µM)
CCCCCC(=O)CC(=O)N[C@@H](CCN)C(=O)N[C@H](C(=O)N[C@@H](CCN)C(=O)N[C@H]1CCNC(=O)[C@H]([C@@H](C)O)NC(=O)[C@H](CCN)NC(=O)[C@H](CCN)NC(=O)[C@H](CC(C)C)NC(=O)[C@@H](Cc2ccccc2)NC(=O)[C@H](CCN)NC1=O)[C@@H](C)O [Compound 5, 3-oxooctanoyl-Dab-Thr-Dab-ring(4-10)[Dab-Dab-D-Phe-Lue-Dab-Dab-Thr]] (X1-[Dab]T[Dab][Dab][Dab][dF]L[Dab][Dab]T; lactam 4-C)	0.5 (≈ 0.415 µM)	0.5 (≈ 0.415 µM)	32 (≈ 26.6 µM)	2 (≈ 1.66 µM)	1 (≈ 0.831 µM)	93.7 ± 7.38 (≈ 77.9 µM)
CC[C@H](C)CCCCC(=O)N[C@@H](CCN)C(=O)N[C@H](C(=O)N[C@@H](CCN)C(=O)N[C@H]1CCNC(=O)[C@H]([C@@H](C)O)NC(=O)[C@H](CCN)NC(=O)[C@H](CCN)NC(=O)[C@H](CC(C)C)NC(=O)[C@@H](Cc2ccc(N)cc2)NC(=O)[C@H](CCN)NC1=O)[C@@H](C)O [Compound 11, (S)-6-methyloctanoyl-Dab-Thr-Dab-ring(4-10)[Dab-Dab-D-Phe(4-NH2)-Lue-Dab-Dab-Thr]] (X2-[Dab]T[Dab][Dab][Dab][dPhe(4-NH2)]L[Dab][Dab]T; lactam 4-C)	2 (≈ 1.64 µM)	1 (≈ 0.821 µM)	128 (≈ 105 µM)	1 (≈ 0.821 µM)	2 (≈ 1.64 µM)	166 ± 15.7 (≈ 137 µM)
CC[C@H](C)CCCCC(=O)N[C@@H](CCN)C(=O)N[C@H](C(=O)N[C@@H](CCN)C(=O)N[C@H]1CCNC(=O)[C@H]([C@@H](C)O)NC(=O)[C@H](CCN)NC(=O)[C@H](CCN)NC(=O)[C@H](CC(C)C)NC(=O)[C@@H](Cc2ccc(C#N)cc2)NC(=O)[C@H](CCN)NC1=O)[C@@H](C)O [Compound 13, (S)-6-methyloctanoyl-Dab-Thr-Dab-ring(4-10)[Dab-Dab-D-Phe(4-CN)-Lue-Dab-Dab-Thr]] (X2-[Dab]T[Dab][Dab][Dab][dPhe(4-CN)]L[Dab][Dab]T; lactam 4-C)	1 (≈ 0.814 µM)	0.5 (≈ 0.407 µM)	16 (≈ 13 µM)	0.25 (≈ 0.203 µM)	2 (≈ 1.63 µM)	186 ± 11.3 (≈ 151 µM)
CC[C@H](C)CCCCC(=O)N[C@@H](CCN)C(=O)N[C@H](C(=O)N[C@H](CCN)C(=O)N[C@H]1CCNC(=O)[C@H]([C@@H](C)O)NC(=O)[C@H](CCN)NC(=O)[C@H](CCN)NC(=O)[C@H]([C@@H](C)O)NC(=O)[C@@H](CC(C)C)NC(=O)[C@H](CCN)NC1=O)[C@@H](C)O [Compound 30, (S)-6-methyloctanoyl-Dab-Thr-D-Dab-ring(4-10)[Dab-Dab-D-Leu-Thr-Dab-Dab-Thr]] (X2-[Dab]T[dDab][Dab][Dab][dL]T[Dab][Dab]T; lactam 4-C)	1 (≈ 0.864 µM)	0.5 (≈ 0.432 µM)	>128	1 (≈ 0.864 µM)	1 (≈ 0.864 µM)	145 ± 12.1 (≈ 125 µM)
CC(C)CCCCC(=O)N[C@@H](CCN)C(=O)N[C@H](C(=O)N[C@H](CCN)C(=O)N[C@H]1CCNC(=O)[C@H]([C@@H](C)O)NC(=O)[C@H](CCN)NC(=O)[C@H](CCN)NC(=O)[C@H]([C@@H](C)O)NC(=O)[C@@H](CC(C)C)NC(=O)[C@H](CCN)NC1=O)[C@@H](C)O [Compound 31, 6-methylheptanoyl-Dab-Thr-D-Dab-ring(4-10)[Dab-Dab-D-Leu-Thr-Dab-Dab-Thr]] ({Heptanoyl(6-Me)}-[Dab]T[dDab][Dab][Dab][dL]T[Dab][Dab]T; lactam 4-C)	0.5 (≈ 0.437 µM)	0.5 (≈ 0.437 µM)	>128	0.5 (≈ 0.437 µM)	1 (≈ 0.875 µM)	288 ± 23.3 (≈ 252 µM)
CCCCCCCC(=O)N[C@@H](CCN)C(=O)N[C@H](C(=O)N[C@@H](CCN)C(=O)N[C@H]1CCNC(=O)[C@H](CO)NC(=O)[C@H](CCN)NC(=O)[C@H](CCN)NC(=O)[C@H]([C@@H](C)O)NC(=O)[C@@H](CC(C)C)NC(=O)[C@H](CCN)NC1=O)[C@@H](C)O [Compound 109, octanoyl-Dab-Thr-Dab-ring(4-10)[Dab-Dab-D-Leu-Thr-Dab-Dab-Ser]] (Octanoyl-[Dab]T[Dab][Dab][Dab][dL]T[Dab][Dab]S; lactam 4-C)	2 (≈ 1.77 µM)	1 (≈ 0.885 µM)	>128	16 (≈ 14.2 µM)	1 (≈ 0.885 µM)	
CCCCCCCC(=O)N[C@@H](CCN)C(=O)N[C@H](C(=O)N[C@@H](CO)C(=O)N[C@H]1CCNC(=O)[C@H]([C@@H](C)O)NC(=O)[C@H](CCN)NC(=O)[C@H](CCN)NC(=O)[C@H]([C@@H](C)O)NC(=O)[C@@H](CC(C)C)NC(=O)[C@H](CCN)NC1=O)[C@@H](C)O [Compound 111, octanoyl-Dab-Thr-Ser-ring(4-10)[Dab-Dab-D-Leu-Thr-Dab-Dab-Thr]] (Octanoyl-[Dab]TS[Dab][Dab][dL]T[Dab][Dab]T; lactam 4-C)	0.5 (≈ 0.442 µM)	0.5 (≈ 0.442 µM)	64 (≈ 56.6 µM)	1 (≈ 0.885 µM)	1 (≈ 0.885 µM)	
CCCCCCCC(=O)N[C@@H](CCN)C(=O)N[C@H](C(=O)N[C@H](CO)C(=O)N[C@H]1CCNC(=O)[C@H]([C@@H](C)O)NC(=O)[C@H](CCN)NC(=O)[C@H](CCN)NC(=O)[C@H]([C@@H](C)O)NC(=O)[C@@H](Cc2ccccc2)NC(=O)[C@H](CCN)NC1=O)[C@@H](C)O [Compound 117, octanoyl-Dab-Thr-D-Ser-ring(4-10)[Dab-Dab-D-Phe-Thr-Dab-Dab-Thr]] (Octanoyl-[Dab]T[dS][Dab][Dab][dF]T[Dab][Dab]T; lactam 4-C)	0.5 (≈ 0.429 µM)	0.5 (≈ 0.429 µM)	>128	0.25 (≈ 0.215 µM)	2 (≈ 1.72 µM)	
CCCCCCCC(=O)N[C@@H](CCN)C(=O)N[C@H](C(=O)N[C@@H](CCN)C(=O)N[C@H]1CCNC(=O)[C@H](CC(C)C)NC(=O)[C@H](CCN)NC(=O)[C@H](CCN)NC(=O)[C@H](CC(C)C)NC(=O)[C@@H](Cc2ccccc2)NC(=O)[C@H](CCN)NC1=O)[C@@H](C)O [Compound 129, octanoyl-Dab-Thr-Dab-ring(4-10)[Dab-Dab-D-Phe-Lue-Dab-Dab-Lue]] (Octanoyl-[Dab]T[Dab][Dab][Dab][dF]L[Dab][Dab]L; lactam 4-C)	4 (≈ 3.33 µM)	4 (≈ 3.33 µM)	8 (≈ 6.66 µM)	4 (≈ 3.33 µM)	4 (≈ 3.33 µM)	
CC(C)CCCCC(=O)N[C@@H](CCN)C(=O)N[C@H](C(=O)N[C@H](CCN)C(=O)N[C@H]1CCNC(=O)[C@H]([C@@H](C)O)NC(=O)[C@H](CCN)NC(=O)[C@H](CCN)NC(=O)[C@H]([C@@H](C)O)NC(=O)[C@@H](Cc2ccccc2)NC(=O)[C@H](CCN)NC1=O)[C@@H](C)O [Compound 144, 6-methylheptanoyl-Dab-Thr-D-Dab-ring(4-10)[Dab-Dab-D-Phe-Thr-Dab-Dab-Thr]] ({Heptanoyl(6-Me)}-[Dab]T[dDab][Dab][Dab][dF]T[Dab][Dab]T; lactam 4-C)	1 (≈ 0.849 µM)	0.5 (≈ 0.425 µM)	>128	1 (≈ 0.849 µM)	1 (≈ 0.849 µM)	
